Structures can show the parent of a compound that is named as a salt.
Tested on: β2AR
Assay: cAMP accumulation (cAMP-Glo), β2AR
Format: cell-based, human
Conditions: for cAMP response (Average): β2AR L258Azi

For `CC(C)NCC(O)c1ccc(O)c(O)c1` (stereo not drawn) [Isoproterenol, isoproterenol (+)-bitartrate salt], the “Emax (Average)” value (β2AR L258 (L258Azi), fit of the isoproterenol concentration-response of Extended Data Figure 3B) was 1.23E+05, the “cAMP response (Average)” value (Log (Isoproterenol (M)) -4) was 1.30E+05 and the “cAMP response (Average)” value (Log (Isoproterenol (M)) -5) was 1.30E+05. The “cAMP response (Average)” value (Log (Isoproterenol (M)) -6) was 1.28E+05, the “cAMP response (Average)” value (Log (Isoproterenol (M)) -7) was 1.04E+05 and the “cAMP response (Average)” value (Log (Isoproterenol (M)) -7.52288) was 1.08E+05. The “cAMP response (Average)” value (Log (Isoproterenol (M)) -8) was 1.10E+05, the “cAMP response (Average)” value (Log (Isoproterenol (M)) -8.52288) was 6.79E+04 and the “cAMP response (Average)” value (Log (Isoproterenol (M)) -9) was 4.10E+04. For the same molecule, the “cAMP response (Average)” value (Log (Isoproterenol (M)) -9.52288) was 2.28E+04, the “cAMP response (Average)” value (Log (Isoproterenol (M)) -10) was -8.91E+03 and the “cAMP response (Average)” value (Log (Isoproterenol (M)) -10.5229) was -2.86E+04. The “cAMP response (Average)” value (Log (Isoproterenol (M)) -11) was -9.58E+03, the “cAMP response (Average)” value (Log (Isoproterenol (M)) -12) was -4.68E+03 and the “cAMP response (Average)” value (Log (Isoproterenol (M)) -13) was 2.29E+03.

Reference: PMC10033409, “Autoregulation of GPCR signalling through the third intracellular loop” (Nature, 2023)
